Experimental findings from patent US20230263822A1, “MODULATION OF FACTOR 11 EXPRESSION” (Ionis Pharmaceuticals, Inc., priority 2008, published 2023) are described below.

The IC50 is the concentration that inhibits the measured activity by half.

Series [1] can be described thus: Tolerability in Sprague-Dawley rats: body weight and organ weight (Example 35). The following applies: 50 mg/kg s.c. twice per week for 6 weeks; for Percent change: Body weight: percent change over the weights at the start of the study; for Percent change in organ weight: Kidney / Percent change in organ weight: Liver / Percent change in organ weight: Spleen: vs saline control, normalized to body weight. Type of series: in vivo. The text has this: Urine samples were taken before the start of treatment.
The body weights are presented in Table 71 and are expressed as a percent change over the weights taken at the start of the study.

The subject of series [2] is human Factor 11 mRNA. Kind of series: Dose-dependent inhibition of human Factor 11 in HepG2 cells, lipofectin 2.34-75 nM (Example 5). Format: cell-based. The following applies: for percent inhibition of human Factor 11 mRNA relative to untreated control cells: ~16 hours. Here is the method: (§1) Cells were plated at a density of 10,000 cells per well and transfected using lipofectin reagent with 2.34 nM, 4.69 nM, 9.375 nM, 18.75 nM, 37.5 nM, and 75 nM concentrations of antisense oligonucleotide, as specified in Table 11. After a treatment period of approximately 16 hours, RNA was isolated from the cells and human Factor 11 mRNA levels were measured by quantitative real-time PCR. Human Factor 11 primer probe set RTS 2966 was used to measure mRNA levels. Factor 11 mRNA levels were adjusted according to total RNA content, as measured by RIBOGREEN. Results are presented as percent inhibition of human Factor 11, relative to untreated control cells.

Series [3] relates to human Factor 11 mRNA. Kind of series: Dose-dependent inhibition of human Factor 11 in HepB3 cells, lipofectin (Example 7). Type of series: cell-based. The following applies: for percent inhibition of Factor 11 mRNA relative to untreated control cells: ~16 hours. Here is the method:
as §1, with “4,000” for “10,000”, “2.3” for “2.34”, “4.7” for “4.69”, “9.4” for “9.375”, “14.” for “11.”, “of” for “of human”

Series [4] deals with human Factor 11 mRNA. Description: Dose-dependent inhibition of human Factor 11 in cyano primary hepatocytes, electroporation (Example 6). Format: cell-based. The following applies: ~16 hours. Here is the method: Cells were plated at a density of 35,000 cells per well and transfected via electroporation with 0.74 nM, 2.2 nM, 6.7 nM, 20 nM, 60 nM, and 180 nM concentrations of antisense oligonucleotide, as specified in Table 13. After a treatment period of approximately 16 hours, RNA was isolated from the cells and human Factor 11 mRNA levels were measured by quantitative real-time PCR. Human Factor 11 primer probe set RTS 2966 was used to measure mRNA levels. Factor 11 mRNA levels were adjusted according to total RNA content, as measured by RIBOGREEN. Results are presented as percent inhibition of human Factor 11, relative to untreated control cells.

On to “416825 (antisense GCCCTTCATGTCTAGGTCCA; 5-10-5 gapmer, further chemistry not given here) [compound 416825]”, for which, in series [1], the “Percent change: Body weight” value was −18%. Moreover, the “Percent change in organ weight: Kidney” value in series [1] is reported as “+25%”. Besides, the “Percent change in organ weight: Liver” value in series [1] is recorded as “+20%”. The “Percent change in organ weight: Spleen” value in series [1] was “+245%”. In addition, the results for the IC50 in the series with human Factor 11 mRNA [2] and in the series with human Factor 11 mRNA [3] were 13 nM and 35 nM, respectively. Also, the “percent inhibition of human Factor 11 mRNA relative to untreated control cells” value in the series on human Factor 11 mRNA [2] (2.34 nM) is given as 4%; in the series with human Factor 11 mRNA [2] (4.69 nM), 22%; in the series on human Factor 11 mRNA [2] (9.375 nM) it was 39%; in the series on human Factor 11 mRNA [2] (18.75 nM), 57%; in the series with human Factor 11 mRNA [2] (37.5 nM), 79%; with human Factor 11 mRNA [2] (75 nM), 89%. In addition, the “percent inhibition of human Factor 11 mRNA relative to untreated control cells” value with human Factor 11 mRNA [4] (0.74 nM) worked out at 5%; with human Factor 11 mRNA [4] (2.2 nM), 22%; in the series with human Factor 11 mRNA [4] (6.7 nM) it was 51%; with human Factor 11 mRNA [4] (20 nM), 61%; in the series on human Factor 11 mRNA [4] (60 nM), 77%; in the series with human Factor 11 mRNA [4] (180 nM) it was 84%. Besides, the “percent inhibition of Factor 11 mRNA relative to untreated control cells” value with human Factor 11 mRNA [3] (2.3 nM) was determined as 0%; with human Factor 11 mRNA [3] (4.7 nM), 15%; in the series with human Factor 11 mRNA [3] (9.4 nM) it was 34%; in the series on human Factor 11 mRNA [3] (18.75 nM) it was 36%; in the series on human Factor 11 mRNA [3] (37.5 nM) it was 53%; in the series on human Factor 11 mRNA [3] (75 nM), 59%.
Turning to “416826 (antisense ATGCCCTTCATGTCTAGGTC; 5-10-5 gapmer, further chemistry not given here) [compound 416826]”, the “Percent change: Body weight” value in series [1] is −40%. Besides, in series [1], the “Percent change in organ weight: Kidney” value is “+44%”. Further, the “Percent change in organ weight: Liver” value in series [1] was “+81%”. Besides, in series [1], the “Percent change in organ weight: Spleen” value is listed as “+537%”. In addition, the values for the IC50 in the series with human Factor 11 mRNA [2] and with human Factor 11 mRNA [3] were 15 nM and 16 nM, respectively. In addition, the “percent inhibition of human Factor 11 mRNA relative to untreated control cells” value is 15% with human Factor 11 mRNA [2] (2.34 nM); 22% in the series with human Factor 11 mRNA [2] (4.69 nM); 32% with human Factor 11 mRNA [2] (9.375 nM); 54% in the series on human Factor 11 mRNA [2] (18.75 nM); 76% in the series with human Factor 11 mRNA [2] (37.5 nM); 90% in the series with human Factor 11 mRNA [2] (75 nM). In addition, the “percent inhibition of human Factor 11 mRNA relative to untreated control cells” value in the series with human Factor 11 mRNA [4] (0.74 nM) amounted to 13%; in the series with human Factor 11 mRNA [4] (2.2 nM), 24%; in the series with human Factor 11 mRNA [4] (6.7 nM), 34%; in the series with human Factor 11 mRNA [4] (20 nM), 67%; in the series with human Factor 11 mRNA [4] (60 nM) it was 69%; with human Factor 11 mRNA [4] (180 nM) it was 71%. Moreover, the “percent inhibition of Factor 11 mRNA relative to untreated control cells” value with human Factor 11 mRNA [3] (2.3 nM) is listed as 16%; in the series on human Factor 11 mRNA [3] (4.7 nM), 28%; in the series with human Factor 11 mRNA [3] (9.4 nM) it was 38%; in the series with human Factor 11 mRNA [3] (18.75 nM), 55%; with human Factor 11 mRNA [3] (37.5 nM), 64%; in the series with human Factor 11 mRNA [3] (75 nM), 66%.
With “416838 (antisense GCAACCGGGATGATGAGTGC; 5-10-5 gapmer, further chemistry not given here) [compound 416838]”, the “Percent change: Body weight” value in series [1] is reported as −23%. For the same substance, in series [1], the “Percent change in organ weight: Kidney” value is given as −0.5%. The “Percent change in organ weight: Liver” value in series [1] is “+8%”. In addition, the “Percent change in organ weight: Spleen” value in series [1] was “+212%”. Also, the IC50 worked out at 10 nM in the series on human Factor 11 mRNA [2] and 11 nM in the series with human Factor 11 mRNA [3]. Moreover, the “percent inhibition of human Factor 11 mRNA relative to untreated control cells” value in the series on human Factor 11 mRNA [2] (2.34 nM) is given as 21%; with human Factor 11 mRNA [2] (4.69 nM), 37%; in the series on human Factor 11 mRNA [2] (9.375 nM) it was 50%; in the series with human Factor 11 mRNA [2] (18.75 nM), 63%; with human Factor 11 mRNA [2] (37.5 nM), 74%; in the series with human Factor 11 mRNA [2] (75 nM) it was 83%. Also, the “percent inhibition of human Factor 11 mRNA relative to untreated control cells” value was 0% with human Factor 11 mRNA [4] (0.74 nM); 0% in the series with human Factor 11 mRNA [4] (2.2 nM); 21% in the series with human Factor 11 mRNA [4] (6.7 nM); 34% in the series with human Factor 11 mRNA [4] (20 nM); 48% in the series on human Factor 11 mRNA [4] (60 nM); 62% in the series on human Factor 11 mRNA [4] (180 nM). Further, the “percent inhibition of Factor 11 mRNA relative to untreated control cells” value is 23% in the series on human Factor 11 mRNA [3] (2.3 nM); 34% in the series on human Factor 11 mRNA [3] (4.7 nM); 43% in the series with human Factor 11 mRNA [3] (9.4 nM); 59% with human Factor 11 mRNA [3] (18.75 nM); 71% in the series with human Factor 11 mRNA [3] (37.5 nM); 56% in the series on human Factor 11 mRNA [3] (75 nM).
“416864 (antisense GGCAGCGGACGGCATTGGTG; 5-10-5 gapmer, further chemistry not given here) [compound 416864]”: the “Percent change: Body weight” value in series [1] is recorded as −24%. Moreover, in series [1], the “Percent change in organ weight: Kidney” value is recorded as “+16%”. Moreover, in series [1], the “Percent change in organ weight: Liver” value was “+16%”. In series [1], the “Percent change in organ weight: Spleen” value is given as “+204%”. Besides, the IC50 with human Factor 11 mRNA [2] is 15 nM; in the series with human Factor 11 mRNA [3] it was 9 nM. The “percent inhibition of human Factor 11 mRNA relative to untreated control cells” value was determined as 13% in the series with human Factor 11 mRNA [2] (2.34 nM); 34% in the series on human Factor 11 mRNA [2] (4.69 nM); 42% with human Factor 11 mRNA [2] (9.375 nM); 65% with human Factor 11 mRNA [2] (18.75 nM); 68% in the series on human Factor 11 mRNA [2] (37.5 nM); 80% in the series on human Factor 11 mRNA [2] (75 nM). The “percent inhibition of human Factor 11 mRNA relative to untreated control cells” value in the series on human Factor 11 mRNA [4] (0.74 nM) is 0%; with human Factor 11 mRNA [4] (2.2 nM), 1%; in the series on human Factor 11 mRNA [4] (6.7 nM) it was 15%; in the series on human Factor 11 mRNA [4] (20 nM) it was 23%; in the series on human Factor 11 mRNA [4] (60 nM), 47%; in the series on human Factor 11 mRNA [4] (180 nM), 64%. In addition, the “percent inhibition of Factor 11 mRNA relative to untreated control cells” value in the series with human Factor 11 mRNA [3] (2.3 nM) was determined as 24%; with human Factor 11 mRNA [3] (4.7 nM) it was 37%; with human Factor 11 mRNA [3] (9.4 nM), 42%; with human Factor 11 mRNA [3] (18.75 nM), 66%; in the series on human Factor 11 mRNA [3] (37.5 nM) it was 76%; in the series on human Factor 11 mRNA [3] (75 nM), 63%.
